For series [1], the system named is toxins/neurotoxins; microorganisms. As to conditions: processed foods.
Series [2] relates to pathogenic microorganisms. Nature of the series: Inhibition/killing of pathogenic microorganisms in water with Boraras Micros fish infected from dead fish. As to conditions: for appearance of water after 6 days / fish outcome after 6 days: 10 ppm Ampicillin / 20 ppm Bactrim / 100 ppm triethylenetetramine diethylenetriaminepentaacetate / 300 Mg EDTA / 600 ppm Ca EDTA / combinations as in label. It counts as in vivo.

Series [3] concerns dry eyes/eye pain/red eyes. Briefly: Treatment of dry eyes/eye pain/red eyes. It counts as in vivo, human. Conditions: 0.1% eye drops, 2 to 6 times a day.
In series [4] the test system is headache. Briefly: Treatment of headaches of unknown cause. The series is classed as in vivo, human. Conditions: 0.5 g oral, adult.
A short description of series [5]: Metallic Cu suspension test with 1% Na ascorbate (Cu ion complex formation). The series is classed as physicochemical. As to conditions: 0.1% CuCl2, alone or with several percent of chelator; excess 1% Na ascorbate.
Series [6] concerns Boraras Micros fish. Briefly: Protection of Boraras Micros fish from CuCl2 by chelators. It counts as in vivo. As to conditions: 0.4 ppm CuCl2 + a few ppm to more than 10 ppm of chelator.
For series [7], the system named is Boraras Micros fish. Nature of the series: Neutralization of toxins/neurotoxins in Boraras Micros fish. The series is classed as in vivo.
The test system of series [8] is mice. The series is classed as in vivo, mouse. Conditions: 0.3% in drinking water from 12 hours after flocoumafen.
Series [9] concerns Boraras Micros fish.
Series [10] has as its system microorganisms that decompose organic matter (bacteria/fungi). Briefly: Culture of microorganisms that decompose organic matter. The series is classed as cell-based. Conditions: media with growth promoting substances.
The format of series [11] is physicochemical, animal/human blood. As to conditions: for volume that completely dissolves Zn-blood complex suspension: suspension from 1.4 ml 0.1% ZnCl2 in 100 ml 0.9% NaCl with 1% blood; for amount needed to completely dissolve Zn-blood complex suspension, compared with lysine phosphate/lysine chloride/arginine phosphate/arginine chloride: suspension with 2 ppm ZnCl2.

The nature of series [12]: Safety of Ca EDTA in adults. The series is classed as in vivo, human. Conditions: 20 g for each time, 4 hours apart.
Series [13] concerns loss of taste in Covid 19. Nature of the series: Treatment of loss of taste in Covid 19. Conditions: solution containing 2% Ca EDTA sucked for a few minutes. It counts as in vivo, human.
The test system of series [14] is avian influenza. On the set-up: species or system chicken. As to conditions: in vivo.
[15] abbreviates: 2000 ppm triethylenetetramine diethylnenepentaacetate / 3000 ppm Mg EDTA / 2000 ppm Cu EDTA / 12000 ppm Ca EDTA, mixtures at concentrations in label.

Entries after “also recorded” stand apart in the source; their conditions may differ. Like-named read-outs stand apart in the source and are kept apart here.

Regarding “triethylenetetramine diethylenetriaminepentaacetate”, the “concentration that inactivates toxins/neurotoxins while preventing proliferation of microorganisms” value in series [1] is recorded as “over 30 ppm”. In series [2], the “appearance of water after 6 days” value is recorded as “clear; also recorded: transparent” and the “fish outcome after 6 days” value is listed as “lived; also recorded: did not die”. In addition, the “concentration in host blood/tissue fluid/alveolar fluid above which ability to inhibit/kill pathogenic bacteria far exceeds Bactrim 10 ppm/Ampicillin 20 ppm” value in [2] (in vivo) is “above 60 ppm”. Moreover, in [3], the “dry eyes/eye pain symptoms a few minutes after instilling” value is given as “no longer exist” and the red eyes symptoms entry was “decrease after a few hours”. Also, the “time until headache symptoms significantly reduced” value in series [4] is on record as “about 2 hours”. The “appearance of metallic Cu suspension” value in [5] is recorded as “metallic Cu suspension will not appear”. Also, the “survival of fish in CuCl2 with chelator” value in series [6] is recorded as “will not die after several weeks”. Besides, the “survival of fish with Alpha Cypermethrin” value in [7] (0.2 ppm Alpha Cypermethrin + 50-300 ppm chelator) is recorded as “lived for many days”. Moreover, the “survival of fish with Methylamine Avermectin” value in series [7] (0.2 ppm Methylamine Avermectin + 50-300 ppm chelator) is “lived for many days”. The “survival of fish with Bromadiolone” value in series [7] (0.3 ppm Bromadiolone + 50-300 ppm chelator) is “lived for many days”. Moreover, the “survival of fish with phenylperazole” value in series [7] (1.0 ppm phenylperazole + 50-300 ppm chelator) is “lived for many days”. The “survival of fish with flocoumafen” value in series [7] (1.25 ppm flocoumafen + 50-300 ppm chelator) was “lived for many days (up to weeks)”. In addition, in series [7] (2.5 ppm Emamectin benzoate + 50-300 ppm chelator), the “survival of fish with Emamectin benzoate” value is listed as “lived for many days”. For the same compound, in series [7] (5 ppm Nereistoxin + 50-300 ppm chelator), the “survival of fish with Nereistoxin” value is given as “lived for many days (up to weeks)”. Besides, the “survival of mice fed flocoumafen” value in [8] is given as “after many days the mice still lived”. The survival of fish entry in series [9] (setting [15]) is given as “lived for many days”. In addition, in series [10], the “concentration at which proliferation of microorganisms is strongly inhibited” value is 100 ppm. Further, in series [11] (concentration of solution not given), the “volume that completely dissolves Zn-blood complex suspension” value amounted to 1.2 mL. In addition, the “amount needed to completely dissolve Zn-blood complex suspension, compared with lysine phosphate/lysine chloride/arginine phosphate/arginine chloride” value in series [11] was “tens to hundreds of times lower”.
`O=C(O)CN(CCN(CC(=O)O)CC(=O)O)CC(=O)O.[Ca]` [Ca EDTA, Ethylenediaminetetraacetic acid calcium]: the “amount used by adults in 24 hours without side effects” value in series [12] was “under 120 g”. In [2] (calcium), the “appearance of water after 6 days” value is recorded as “clear; also recorded: transparent” and the “fish outcome after 6 days” value was “lived; also recorded: did not die”. Moreover, the “survival of fish in CuCl2 with chelator” value in series [6] is on record as “will not die after several weeks”. Moreover, in series [9] (in vivo), the survival of fish entry is “lived for many days”, the “time after which fish did not die” value is given as at least 10 days and the “toxicity / safety to host cells” value is recorded as “highly safe”. The “concentration at which proliferation of microorganisms is strongly inhibited” value in series [10] turned out to be 700 ppm. Moreover, the “recovery of sweet taste” value in series [13] is given as “recover immediately afterwards”.
For the compound `O=C(O)CN(CCN(CC(=O)O)CC(=O)O)CC(=O)O.[Mg]` [Mg EDTA, Ethylenediaminetetraacetic acid magnesium], in series [2], the “appearance of water after 6 days” value is “clear; also recorded: transparent” and the “fish outcome after 6 days” value is “lived; also recorded: did not die”. In series [5], the “appearance of metallic Cu suspension” value is on record as “metallic Cu suspension will not appear”. Also, the “state of chickens after 12 hours” value in series [14] is “stopped the lethargic state and they returned to eating normally”. In [6], the “survival of fish in CuCl2 with chelator” value is “will not die after several weeks”. The “time after which fish did not die” value in [9] (800 ppm EDTA Cu / 3000 ppm EDTA Mg / 12000 ppm EDTA Ca) is on record as at least 10 days. Further, in series [9] (setting [15]), the survival of fish entry is “lived for many days”. The “volume that completely dissolves Zn-blood complex suspension” value in series [11] (0.1% solution) worked out at 2 mL. Moreover, the “amount needed to completely dissolve Zn-blood complex suspension, compared with lysine phosphate/lysine chloride/arginine phosphate/arginine chloride” value in series [11] was “tens to hundreds of times lower”.

For the origin of these results see patent US20260294964A1, “PHARMACEUTICALS CONTAINING CHELATORS WITH STRONG ZN IONS-HOLDING FEATURE FOR THE TREATMENT OF SYMPTOMS AND DISEASES CAUSED BY MICROORGANISMS/DISEASES CAUSED BY TOXINS OR NEUROTOXINS/CANCER/SEVERAL SYNDROMES” (priority 2023, published 2026).
